Data taken from article PMC6151491, “In Vitro Evaluation of Third Generation PAMAM Dendrimer Conjugates” (Molecules : A Journal of Synthetic Chemistry and Natural …, 2017).

System: Caco-2 cells
Experiment: Lactate dehydrogenase leakage (LDH) assay
Type: cell-based, Human
Conditions: 3 h incubation, mean ± S.D., n = 4, read-out: IC50 (viability of Caco-2 cells, LDH assay)
Procedure: Human intestinal adenocarcinoma cells (Caco-2) (passage 110–120) were seeded at 10,000 cells/well in 96-well plates and maintained at 37 °C in an atmosphere of 5% CO2 and 95% relative humidity in Dulbecco’s Modified Eagle’s Medium (DMEM) supplemented with 1% foetal bovine serum, 1% non-essential amino acids, 50 IU/mL penicillin. and […] streptomycin. After 24 h the medium was removed and the cells were washed in phosphate buffered saline and 200 µL Hanks Balanced Salt Solution (HBSS) containing G3 PAMAM dendrimer, conjugates or G0 PAMAM dendrimer at different concentrations (concentrations were calculated using the average molecular weight (Table 1) for each conjugate as a whole macromolecule). Caco-2 cell monolayers were also treated with blank HBSS and 1% Triton X-100 as low and high controls, respectively. After 3 h of incubation at 37 °C, 100 µL/well supernatant was removed carefully and transferred into corresponding wells of an optically clear 96-well flat bottom microplate. LDH leakage in the compartment was quantified using an LDH assay kit.
The percentage was calculated using the following equation:Cytotoxicity (%) = ((exp. − low control)/(high control − low control)) × 100 where exp. is the experimental value.

With “lauroyl-G0-diethylene glycol-naproxen [L-G0-deg-NAP]” the IC50 was 3.18 ± 0.455 mM.
